Source: US20240408005A1, “USE OF CALCIUM SENSING RECEPTOR ANTAGONISTS FOR TREATING OCULAR DISORDERS” (The Regents of the University of California, priority 2023, published 2024)

Tests used:
ENaC = experiment: Ocular surface potential difference (OSPD), amiloride-induced depolarization; assay type: in vivo, mouse; conditions: topical, 100 μM amiloride, 0-30 μM cinacalcet in all solutions
Description: (§1) Using pharmacological activators and inhibitors, OSPD allows studying activities of various ion channels/transporters in the ocular surface.^12 In these studies, baseline OSPD is established using a high Cl^− solution that mimics the tear film. OSPD changes induced by amiloride (ENaC inhibitor) indicates Na^+ transport via ENaC. Similarly, OSPD changes induced by forskolin (cAMP agonist) and CFTRinh-172 (CFTR inhibitor) indicates Cl^− secretion via cAMP-activated Cl^− channels and particularly CFTR. Lastly, OSPD changes induced by Ca^2+ agonist ATP indicates Cl^− secretion mediated by CaCCs. […]
(§2) Ocular surface potential difference (OSPD) and tear fluid volume measurements were performed in mice with topically applied cinacalcet (CaSR activator) and NPS-2143 (CaSR inhibitor). […] As described previously,^12,14,15 open-circuit transepithelial potential differences were measured in response to serial perfusions of different isoosmolar (310 mOsm/kg H2O) solutions over the ocular surface at 5-10 ml/min. […] Each solution was perfused onto the ocular surface using a gravity perfusion system (ALA Scientific; Farmingdale, NY, USA) for 1-3 minutes until a stable OSPD reading was obtained.

CFTR = experiment: Ocular surface potential difference (OSPD), forskolin / CFTRinh-172 responses; assay type: in vivo, mouse
Description: Using pharmacological activators and inhibitors, OSPD allows studying activities of various ion channels/transporters in the ocular surface.^12 In these studies, baseline OSPD is established using a high Cl^− solution that mimics the tear film. OSPD changes induced by amiloride (ENaC inhibitor) indicates Na^+ transport via ENaC. Similarly, OSPD changes induced by forskolin (cAMP agonist) and CFTRinh-172 (CFTR inhibitor) indicates Cl^− secretion via cAMP-activated Cl^− channels and particularly CFTR. Lastly, OSPD changes induced by Ca^2+ agonist ATP indicates Cl^− secretion mediated by CaCCs.
Sequential perfusion of the ocular surface with solutions containing amiloride (ENaC inhibitor), forskolin (cAMP agonist), CFTRinh-172 (CFTR inhibitor), and ATP (Ca^2+ agonist) thus allows determining activities of ENaC, CFTR, and CaCC ion channels, respectively (FIG. 4A).
The compositions of perfusion solutions follow the solutions used in the standardized human nasal and ocular potential difference protocol.^12,13 Solutions #1-3 (high Cl^−, amiloride, and low Cl^−, respectively) were made in 1-liter batches, pH balanced to 7.4, and filtered in a sterile environment prior to refrigeration and used within 3 months. Solution #1 (high Cl^−) contained 1 L Ringer's injection (containing 147 mM NaCl, 2 mM CaCl2), 4 mM KCl, 2.4 mM K2HPO4, 0.4 mM KH2PO4, and 1.2 mM MgCl2. 100 μM amiloride was added to Solution #1 to create Solution #2 (amiloride). Solution #3 (low Cl^−) was identical to Solution #1, except NaCl was replaced with sodium gluconate. Cinacalcet (CaSR agonist) and NPS-2143 (CaSR antagonist) were purchased from Tocris Bioscience (Minneapolis, MN, USA). All other chemicals were purchased from Sigma-Aldrich (St. Louis, MO, USA).
Ocular surface potential difference (OSPD) and tear fluid volume measurements were performed in mice with topically applied cinacalcet (CaSR activator) and NPS-2143 (CaSR inhibitor). Mice were anesthetized with isoflurane and body temperature was maintained at 37° C. via a heating pad. As described previously,^12,14,15 open-circuit transepithelial potential differences were measured in response to serial perfusions of different isoosmolar (310 mOsm/kg H2O) solutions over the ocular surface at 5-10 ml/min. The measuring electrode was in contact with the perfusion catheter which was carefully positioned using a three-axis micromanipulator directly above the mouse ocular surface and the reference electrode was grounded via a 23-gauge butterfly needle agar bridge inserted subcutaneously in the back. Measuring and reference electrodes consisted of Ag/AgCl with 3 M KCl agar bridges, and both electrodes were connected to an ISO-Z headstage, BMA-200 high-impedance amplifier/voltmeter, and PowerLab analog-to-digital converter (ADInstruments; Colorado Springs, CO, USA) connected to a computer (FIG. 1). Each solution was perfused onto the ocular surface using a gravity perfusion system (ALA Scientific; Farmingdale, NY, USA) for 1-3 minutes until a stable OSPD reading was obtained.

CaCC = experiment: Ocular surface potential difference (OSPD), ATP-induced hyperpolarization; assay type: in vivo, mouse
Description: as §1, §2

mouse ocular surface = experiment: Baseline ocular surface potential difference (OSPD); assay type: in vivo; conditions: topically administered, mice
Description: as §1, §2

[1] = Tear fluid volume by endodontic absorbent paper point tear test (EAPPTT); assay type: in vivo, BALB/c mice; conditions: for EAPPTT wetting length: 0.001% single 10 μL dose, baseline 2.3±0.2 mm
Description: […] All mice were kept at ambient conditions (approximately 50% humidity and 21° C.) and provided unrestricted access to food and water.

[2] = in vivo; cited from earlier work

Q: Which results are given for `C[C@@H](NCCCc1cccc(C(F)(F)F)c1)c1cccc2ccccc12` [cinacalcet]?
A: effect on ENaC activity / Na+ absorption mediated by ENaC (amiloride-induced depolarization) (ENaC): no effect; lower CFTRinh-172 response (CFTR activity) (CFTR; at 30 μM, 10 μM CFTRinh-172, FIG. 4E): up to 90%; lower forskolin response (CFTR activity) (CFTR; at 30 μM, 10 μM forskolin, FIG. 4D): up to 90%; inhibition of forskolin-induced Cl− secretion and CFTR activity (CFTR; at 30 μM, concentration-dependent, topical, mice): up to 90%; inhibition of ATP response (CaCC; 30 μM cinacalcet, 100 μM ATP, without prior forskolin and CFTRinh-172, FIG. 5): ~50%; lower ATP-induced hyperpolarization (CaCC activity) (CaCC; 100 μM ATP added after forskolin and CFTRinh-172, FIG. 4F): 90%; effect on baseline OSPD (mouse ocular surface): no effect

Q: Which “reversal of response by CFTR inhibitor CFTRinh-172” value (CFTR; 30 μM, 10 μM CFTRinh-172) does the source give for `CC(C)(Cc1ccc2ccccc2c1)NC[C@@H](O)COc1cccc(Cl)c1C#N` [NPS-2143, 2-chloro-6-[(2R)-3-([1,1-dimethyl-2-(2-naphthalenyl)ethyl]amino)-2-hydroxypropoxy]benzonitrile] here?
A: partially reversed

Q: What about the “hyperpolarization relative to subsequently applied maximal forskolin-induced hyperpolarization” value (CFTR; 30 μM, 10 μM forskolin) of the same compound?
A: 70%

Q: What about the “hyperpolarization (OSPD change)” value (CFTR; perfusion of ocular surface with 30 μM) of the same compound?
A: −13 mV

Q: And the “increased tear fluid volume” value ([1]; 0.001% or 30 μM, single 10 μL dose, 15 minutes after treatment)?
A: 60%

Q: What about the EAPPTT wetting length ([1]; 15 minutes after administration, mean±SEM) of the same compound?
A: 3.6±0.2 mm

Q: What about the EAPPTT wetting length ([1]; 8 hours after administration) of the same compound?
A: 3.6±0.2 mm

Q: And the “reversibility of effect on tear volume” value ([1]; 24 h after treatment)?
A: return of tear volume to near baseline values

Q: And the “increase of tear fluid volume” value ([1]; single dose topical 0.001% or 30 μM, for at least eight hours)?
A: > 60%

Q: Which “outcome of clinical trials for DED” value [2] does the source give for `O=c1ccn([C@@H]2O[C@H](COP(=O)(O)OP(=O)(O)OP(=O)(O)OP(=O)(O)OC[C@H]3O[C@@H](n4ccc(=O)[nH]c4=O)[C@H](O)[C@@H]3O)[C@@H](O)[C@H]2O)c(=O)[nH]1` [diquafosol] here?
A: did not meet the primary endpoints
